Test results published in patent US20110212235A1, “ANTIMICROBIAL SALT SOLUTIONS FOR CHEESE PROCESSING APPLICATIONS” (priority 2006, published 2011).

Key:
Type in all cases: cell-based
[1] = system: Uncharacterized microorganisms cultured from raw ground beef; assay: Total plate count challenge of 24% NaCl brine with ground beef organisms; details: after 4 hours in 24% NaCl brine at −5° C.
Experimental: Tests were run to determine the effectiveness of formulas against organisms other than L. monocytogenes. […] The test solutions were inoculated with the ground beef organism culture and incubated for 4 hours at −5° C. before plating.

Pink Yeast = assay: Yeast challenge, pink yeast; details: after 4 hours in blue cheese brine; Table 21 (sodium octanoate experiment)
Experimental: (§1) “Yeast” Procedure: • 1. Inoculate a separate tube containing 10 ml of Brain Heart Infusion (BHI) broth for each wild type (Raised, Rough and Flat white yeast along with a single pink yeast). Incubate for 5 days at 26° C.+/−2° C. • 2. Assume growth to be 10^7 cfu/ml. Since 4 cultures are being used, combine 2.75 ml of each culture added to 99 ml of cold Butterfield's Phosphate Buffered Water (PBW) to obtain 10^6 cfu/ml of yeast cocktail. • 3. Plate serial dilutions of the culture to get the starting count of the inoculum on Dichloran-Rose Bengal-Chloramphenicol Agar (DRBC). • 4. Add 1 ml of the diluted cocktail to 100 ml of cold test solution. • 5. Determine the population at time 0 and 4 hours. Spread plate serial dilutions to DRBC agar. • 6. Incubate the test solutions at 10° C.+/−2° C. for the duration of the experiment. • 7. Incubate the plates at 20° C.+/−2° C. for 5 days+/−2 hours. • 8. Count representative colonies and multiply by the dilution factor. Note: Each test solution should contain ˜10^4 cfu/ml.
(§2) In order to determine if the effect of the additive was repeatable, more challenge tests were run on samples of process brine. […] In this test the solutions were challenged with two distinct yeast (a white and a pink) types and coliforms from the samples sent by the cheese plant.

black mold = assay: “Mold” procedure, black mold; details: after 4 hours in blue cheese brine; Table 20; inoculum 2.5 × 10^4 (est)
Experimental: (§3) In the present example, cultures of various microorganisms native to actual process brines used in cheese manufacture were obtained from a cheese plant. The cultures of yeast, mold, and coliforms were grown and used to test the efficacy of various antimicrobial additives in blue cheese brines. Organism cultures included four different types of yeast (three distinct while yeast cultures and a pink yeast), a black mold culture, a coliform culture, a culture of mixed green mold and yeast that were not separated, and a culture that was identified by the cheese plant as heterofermentative lactic acid bacteria, although no actual identification of the strain was carried out.
(§4) “Mold” Procedure: • 1. From refrigerated stock mold cultures, take 1 ml from black mold dilution bottle added to 99 ml of cold Butterfield's Phosphate Buffered Water (PBW) to obtain 10^5 cfu/ml. • 2. Take 1 ml from green mold/white yeast mixture dilution bottle added to 99 ml of cold Butterfield's Phosphate Buffered Water (PBW) to obtain 10^6 cfu/ml. • 3. Plate serial dilutions of the cultures to get the starting count of the inoculum on Dichloran-Rose Bengal-Chloramphenicol Agar (DRBC). • 4. Add 1 ml of the diluted mold culture to 100 ml of cold test solution (do separately for each of the two mold cultures). • 5. Determine the population at time 0 and 4 hours. Spread plate serial dilutions to DRBC agar. • 6. Incubate the test solutions at 10° C.+/−2° C. for the duration of the experiment. • 7. Incubate the plates at 20° C.+/−2° C. for 5 days+/−2 hours. • 8. Count representative colonies and multiply by the dilution factor. Note: For black mold, each test solution should contain ˜10^3 cfu/ml. For green mold/white yeast mixture, each test solution should contain ˜10^4 cfu/ml.

[2] = system: heterofermentative lactic acid bacteria (not identified); assay: “Lactic Bacteria” procedure in cheese brine; details: after 4 hours in blue cheese brine; Table 20; inoculum 1.2 × 10^7 (est)
Experimental: as §3
“Lactic Bacteria” Procedure: • 1. Inoculate a separate tube containing 10 ml of Brain Heart Infusion (BHI) broth for each wild type tactics 1 and 2. Incubate for 72+/−2 hours at 30° C.+/−2° C. • 2. Assume growth to be 10^9 cfu/ml. Since two cultures are being used, combine 5.5 ml of each culture added to 99 ml of cold Butterfield's Phosphate Buffered Water (PBW) to obtain 10^8 cfu/ml. • 3. Plate serial dilutions of the culture to get the starting count of the inoculum on Lactobacilli MRS Agar (MRSA). • 4. Add 1 ml of the diluted cocktail to 100 ml of cold test solution. • 5. Determine the population at time 0 and 4 hours. Plate serial dilutions using MRSA spread plates. • 6. Incubate the test solutions at 10° C.+/−2° C. for the duration of the experiment. • 7. Incubate the plates at 30° C.+/−2° C. for 72+/−2 hours. • 8. Count representative colonies and multiply by the dilution factor. Note: Each test solution should contain ˜10^8 cfu/ml.
In this experiment solutions were challenged with cultures of the black mold, the green mold/yeast combination, and the bacteria thought to be “lactic acid” bacteria. In this experiment, a brine control with no additive was neglected, but the data still indicate the strong effectiveness of the octanoic acid against yeast and mold.

[3] = system: green mold/white yeast mixture; assay: “Mold” procedure, green mold/white yeast mixture; details: after 4 hours in blue cheese brine; Table 20; inoculum 5.8 × 10^6 (est)
Experimental: as §3, §4
Screening tests identified octanoic acid as a promising antimicrobial additive for salt brines. Table 16 gives results of a challenge test run on actual blue cheese and mozzarella process brine samples sent from a cheese plant. The brines were treated with different concentrations of octanoic acid and then challenged with a yeast cocktail (which included the pink and 3 different white mold types), the green mold+yeast combination, and coliforms. […] The plate counts listed parenthetically as (est) were too numerous to count and were estimated.

[4] = system: wild type coliforms from cheese plant brine; assay: Coliforms procedure in cheese brine or buffered solution; details: after 4 hours in blue cheese brine; Table 21 (sodium octanoate experiment)
Experimental: as §3
Coliforms Procedure: • 1. Inoculate a separate tube containing 10 ml of Brain Heart Infusion (BHI) broth for each wild type coliforms 1 and 2. Incubate for 24+/−2 hours at 35° C.+/−2° C. • 2. Assume growth to be 10^9 cfu/ml. Since two cultures are being used, combine 5.5 ml of each culture added to 99 ml of cold Butterfield's Phosphate Buffered Water (PBW) to obtain 10^8 cfu/ml. • 3. Plate serial ten-fold dilutions of the culture to get the starting count of the inoculum on Violet Red Bile Agar (VRBA). • 4. Add 1 ml of the diluted cocktail to 100 ml of cold test solution. • 5. Determine the population at time 0 and 4 hours by plating serial dilutions to VRBA spread plates. • 6. Incubate the test solutions at 10° C.+/−2° C. for the duration of the experiment. • 7. Incubate the plates at 20° C.+/−2° C. for 72+/−2 hours. • 8. Count representative colonies and multiply by the dilution factor. Note: Each test solution should contain ˜10^8 cfu/ml.
The brines were treated with different concentrations of octanoic acid and then challenged with a yeast cocktail (which included the pink and 3 different white mold types), the green mold+yeast combination, and coliforms.

White Yeast = assay: Yeast challenge, white yeast; details: after 4 hours in blue cheese brine; Table 21 (sodium octanoate experiment)
Experimental: as §1, §2

L. monocytogenes biofilm = assay: L. mono biofilm challenge in hot dog plant chill brine at −20° C.; details: for L. mono biofilm count, 1 hour: 1 hour at −20° C.; for L. mono biofilm count, 1 hour / L. mono biofilm count, 24 hours: hot dog plant chill brine with cooked turkey added; for L. mono biofilm count, 24 hours: 24 hours at −20° C.
Experimental: Biofilms can provide a haven for pathogens, increasing their resistance to antimicrobial treatments, and thereby providing another possible source of food contamination. Tests were run to see if some embodiments were effective against a L. monocytogenes biofilm. Challenge tests were run according to the procedure below. Test solutions were prepared from a sample of hot dog plant chill brine which was treated with various levels of the alcohol ethoxylate surfactant. Cooked turkey was added to the test solution before inoculation to simulate a worst case “dirty” brine with a high degree of organic load.
1. Inoculate five cultures, L. monocytogenes H2446 (CDC Global Standard), Scott A-serotype 4b, 12243-serotype 1/2a, WP1 and WP4 in 10 ml Brain Heart Infusion broth (BHI). Incubate the tubes for 7 days at 10° C.+/−2° C. 2. Aseptically dispense 50 ml of sterile Tryptic Soy Broth (TSB)+0.6% Yeast Extract (YE) into sterile disposable 50 ml conical shaped plastic tubes. Make enough tubes for each time point. 3. Aseptically drop one coupon into the broth in each tube. 4. Make a cocktail of the five cultures and add 0.1 ml into each tube. Incubate the tubes for 7 days at 7° C.+/−2° C. 5. Dispense 40 ml of antimicrobial salt solutions containing sterile phosphate buffer into 50 ml plastic tubes. 6. After biofilm has grown, aseptically remove coupon and rinse each side for 5 seconds with sterile distilled water to remove unattached cells. 7. Aseptically drop each rinsed coupon into the antimicrobial salt solution tube and incubate for appropriate time (1 hour and 24 hour) at −20° C.+/−2° C. 8. Aseptically add 45 ml of sterile phosphate buffer (PBW) to 50 ml conical shaped plastic tubes along with 10 sterile glass beads. 9. After incubate time is complete, aseptically move the coupon from the antimicrobial salt solution to the sterile (PBW) solution containing beads. 10. Shake the tube with glass beads for about 2 minutes to remove attached cells. 11. Plate the cells in the PBW solution on TSA+0.6% YE using appropriate dilutions and incubate at 20° C. for 72+/−2 hours. 12. Plate the antimicrobial salt solution on TSA+0.6% YE using appropriate *dilutions and incubate 20° C. for 72+/−2 hours. *Please make note: The first dilution should take place in 9 ml DE Neutralizing Buffer. After incubation, count typical colonies and record results to cfu/g.

L. monocytogenes = L. monocytogenes cocktail challenge of surfactant/salt solutions at 2° C.; details: after 4 hours in solution at 2° C.; Table 2, different salts and salt concentrations
Experimental: Tests were generally run according to the following procedure:
1. Inoculate a separate tube containing approximately 10 ml of Brain Heart infusion (BHI) broth with the following L. monocytogenes strains: H2446 (CDC Global Standard), Scott A (serotype 4b), 12243 (serotype 1/2a), and two strains isolated from the environment of a cooked meat and poultry facility, designated WP1, and WP4. Incubate the tubes at least 5 days at 7-10° C.+/−2° C. 2. Assume the growth to be 10^9 cfu/ml. Serially dilute each culture in cold (˜7° C.). Butterfield's Phosphate Buffered Water (PBW) to 10^8 cfu/ml (1:10). Since five cultures of L. monocytogenes are being used as a cocktail, begin the dilution series using 2.20 ml of each culture added to 99 ml of PBW. 3. Plate (−6, −7, −8) the diluted culture to get the starting count of the inoculum on Modified Oxford medium (MOX) using a thin agar overlay (TAL) technique (overlay with Trypticase Soy Agar [TSA]) to revive injured cells. 4. Add 1 ml of the diluted cocktail to 100 ml of cold test solution. 5. Mix the solutions well. 6. Determine the L. monocytogenes population at time 0 and 4 hours. Plate −1 (0.1 ml on 1 plate), −2, −3, and −4 dilutions using spread plates on MOX TAL with TSA. 7. Incubate the test solutions at test temperature for the duration of the experiment. 8. Incubate the MOX TAL with TSA plates at 20° C.+/−2° C. for 72+/−3 hours. Count representative colonies, which are black, and multiply by the dilution factor.

## nonylphenolethoxylate [800 ppm nonylphenolethoxylate]
[1]
  Total plate count: 40 cfu/mL

## alcohol ethoxylate [800 ppm alcohol ethoxylate]
[1]
  Total plate count: <10 cfu/mL

## sodium linear alkylbenzene sulfonate
[1]
  Total plate count: <10 cfu/mL

## decyl alcohol ethoxylate, POE-6 [800 ppm decyl alcohol ethoxylate, POE-6]
[1]
  Total plate count: 10 cfu/mL

## CCCCCCCC(=O)O [62.5 ppm octanoic acid, octanoic acid]
Pink Yeast
  Pink Yeast count: <10 cfu/mL
Black mold
  Black Mold count: <10 cfu/mL
[2]
  “Lactics” count: 1.5 × 10^5 cfu/mL
[3]
  Green Mold + Yeast count: 1.0 × 10^4 cfu/mL
[4]
  Coliforms count: 3.8 × 10^4 cfu/mL
White Yeast
  White Yeast count: 90 cfu/mL

## sodium salt of sulfonated oleic acid
[1]
  Total plate count: 5.2 × 10^3 cfu/mL

## alcohol ethoxylate [15 ppm alcohol ethoxylate]
L. monocytogenes biofilm
  L. mono biofilm count, 1 hour: 5,000 cfu/coupon
  L. mono biofilm count, 24 hours: 5600 cfu/coupon

## alcohol ethoxylate [50 ppm alcohol ethoxylate]
L. monocytogenes biofilm
  L. mono biofilm count, 1 hour: 10-100 cfu/coupon
  L. mono biofilm count, 24 hours: <10 cfu/coupon
L. monocytogenes biofilm; very “dirty” brine, −20° C., 1 hour
  log kill of the biofilm within 1 hour: > 2 log
L. monocytogenes biofilm; very “dirty” brine, −20° C., 24 hours
  log kill of the biofilm after 24 hours: > 3 log
L. monocytogenes
  L. mono count: 1.9 × 10^5 cfu/mL

## alcohol ethoxylate [25 ppm alcohol ethoxylate]
L. monocytogenes biofilm
  L. mono biofilm count, 1 hour: 3500 cfu/coupon
  L. mono biofilm count, 24 hours: 250 cfu/coupon
